The values below come from patent publication US20240246942A1, “KINASE INHIBITORS FOR THE TREATMENT OF NEURODEGENERATIVE DISEASES” (priority 2020, published 2024).

Assay in all cases: biochemical
In experiment [1] the target is T1, panel of 374 wild-type kinases (Homo sapiens, UniProt P00519).
T1 construct: purchased Reaction Biology Corporation
Conditions: read-out: % Enzyme Activity (relative to DMSO controls), ABL1.

The target in experiment [2] is T2, panel of 374 wild-type kinases (Homo sapiens, UniProt P51956).
T2 construct: purchased Reaction Biology Corporation
T2 sequence (P51956 1-506): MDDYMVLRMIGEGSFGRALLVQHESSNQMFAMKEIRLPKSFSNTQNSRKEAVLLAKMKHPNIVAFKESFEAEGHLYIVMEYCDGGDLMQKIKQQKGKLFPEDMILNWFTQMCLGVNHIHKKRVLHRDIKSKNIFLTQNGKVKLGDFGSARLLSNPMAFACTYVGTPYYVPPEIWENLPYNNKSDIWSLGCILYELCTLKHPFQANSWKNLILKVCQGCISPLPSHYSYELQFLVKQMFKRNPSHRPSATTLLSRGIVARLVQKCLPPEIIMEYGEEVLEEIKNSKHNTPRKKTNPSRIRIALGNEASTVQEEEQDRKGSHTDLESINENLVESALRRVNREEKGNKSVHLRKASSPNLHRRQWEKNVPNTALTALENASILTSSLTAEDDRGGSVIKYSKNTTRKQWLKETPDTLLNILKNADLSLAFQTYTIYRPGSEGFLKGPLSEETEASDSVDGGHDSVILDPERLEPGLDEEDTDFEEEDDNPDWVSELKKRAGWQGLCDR
To be noted: read-out: % Enzyme Activity (relative to DMSO controls), NEK3.

Experiment [3] concerns the target T3, panel of 374 wild-type kinases (Homo sapiens, UniProt Q08881).
T3 construct: purchased Reaction Biology Corporation
T3 sequence (Q08881 1-620): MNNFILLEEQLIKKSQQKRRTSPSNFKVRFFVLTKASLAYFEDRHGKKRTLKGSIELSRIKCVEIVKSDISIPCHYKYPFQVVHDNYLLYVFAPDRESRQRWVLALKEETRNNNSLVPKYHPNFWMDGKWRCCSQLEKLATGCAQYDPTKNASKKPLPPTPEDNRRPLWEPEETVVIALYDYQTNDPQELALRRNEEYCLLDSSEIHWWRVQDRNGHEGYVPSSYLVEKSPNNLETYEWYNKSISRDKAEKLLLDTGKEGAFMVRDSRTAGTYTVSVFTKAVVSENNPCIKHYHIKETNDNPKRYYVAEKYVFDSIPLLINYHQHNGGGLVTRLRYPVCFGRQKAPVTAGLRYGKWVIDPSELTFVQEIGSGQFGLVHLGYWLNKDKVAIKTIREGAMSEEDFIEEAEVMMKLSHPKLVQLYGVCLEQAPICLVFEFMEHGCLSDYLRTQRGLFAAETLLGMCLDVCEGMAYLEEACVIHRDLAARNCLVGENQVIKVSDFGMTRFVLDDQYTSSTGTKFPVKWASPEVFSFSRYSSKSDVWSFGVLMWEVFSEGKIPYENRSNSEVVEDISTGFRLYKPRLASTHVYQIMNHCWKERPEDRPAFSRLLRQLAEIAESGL
Conditions: read-out: % Enzyme Activity (relative to DMSO controls), ITK.

Experiment [4] has as its target T4, panel of 374 wild-type kinases (Homo sapiens, UniProt Q8IYT8).
T4 construct: purchased Reaction Biology Corporation
T4 sequence (Q8IYT8 1-1036): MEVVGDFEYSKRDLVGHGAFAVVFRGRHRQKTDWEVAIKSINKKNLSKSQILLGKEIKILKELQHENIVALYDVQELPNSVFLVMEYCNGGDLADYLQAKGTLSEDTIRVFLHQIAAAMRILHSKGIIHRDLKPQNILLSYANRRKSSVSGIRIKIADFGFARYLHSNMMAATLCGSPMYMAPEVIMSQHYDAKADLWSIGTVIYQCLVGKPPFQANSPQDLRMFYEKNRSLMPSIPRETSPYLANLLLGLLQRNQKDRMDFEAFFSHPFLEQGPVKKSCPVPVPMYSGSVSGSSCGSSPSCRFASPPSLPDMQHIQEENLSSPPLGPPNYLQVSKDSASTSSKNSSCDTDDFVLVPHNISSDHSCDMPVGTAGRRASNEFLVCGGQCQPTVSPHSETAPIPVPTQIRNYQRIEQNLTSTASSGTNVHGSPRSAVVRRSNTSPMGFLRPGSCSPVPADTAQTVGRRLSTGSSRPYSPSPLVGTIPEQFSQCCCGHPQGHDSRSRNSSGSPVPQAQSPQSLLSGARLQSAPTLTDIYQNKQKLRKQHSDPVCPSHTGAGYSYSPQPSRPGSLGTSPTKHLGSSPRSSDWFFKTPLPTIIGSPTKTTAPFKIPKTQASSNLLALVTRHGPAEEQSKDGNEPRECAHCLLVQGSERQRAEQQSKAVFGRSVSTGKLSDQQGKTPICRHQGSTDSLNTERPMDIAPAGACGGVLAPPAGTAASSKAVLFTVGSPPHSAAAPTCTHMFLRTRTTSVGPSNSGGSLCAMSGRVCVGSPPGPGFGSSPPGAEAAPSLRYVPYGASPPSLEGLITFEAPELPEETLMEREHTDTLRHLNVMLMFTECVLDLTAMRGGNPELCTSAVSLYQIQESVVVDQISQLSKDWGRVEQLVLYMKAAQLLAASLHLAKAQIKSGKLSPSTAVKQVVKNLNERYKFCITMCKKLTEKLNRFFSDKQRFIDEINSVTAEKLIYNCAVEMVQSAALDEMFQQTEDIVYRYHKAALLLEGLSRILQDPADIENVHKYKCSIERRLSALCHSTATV
Conditions: read-out: % Enzyme Activity (relative to DMSO controls), kinase ULK2.

For experiment [5], the target named is T5, panel of 374 wild-type kinases (Homo sapiens, UniProt Q8TD08).
T5 construct: purchased Reaction Biology Corporation
T5 sequence (Q8TD08 1-544): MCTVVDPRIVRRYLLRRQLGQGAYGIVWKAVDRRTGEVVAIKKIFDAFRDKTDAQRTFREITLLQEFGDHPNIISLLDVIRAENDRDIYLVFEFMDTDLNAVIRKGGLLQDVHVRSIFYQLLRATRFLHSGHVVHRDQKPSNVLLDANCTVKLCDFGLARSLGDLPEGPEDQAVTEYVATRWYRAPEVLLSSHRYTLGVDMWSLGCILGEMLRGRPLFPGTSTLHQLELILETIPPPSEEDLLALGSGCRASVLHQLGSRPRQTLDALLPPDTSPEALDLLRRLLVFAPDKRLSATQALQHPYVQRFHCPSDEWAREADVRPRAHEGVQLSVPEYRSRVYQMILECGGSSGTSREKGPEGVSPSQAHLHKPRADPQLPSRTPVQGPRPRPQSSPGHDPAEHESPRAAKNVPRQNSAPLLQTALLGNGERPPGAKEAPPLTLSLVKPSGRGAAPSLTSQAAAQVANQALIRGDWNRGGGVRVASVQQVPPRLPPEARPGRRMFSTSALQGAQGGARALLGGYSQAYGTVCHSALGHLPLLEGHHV
To be noted: read-out: % Enzyme Activity (relative to DMSO controls), ERK7/MAPK15.

T1 sequence (P00519 whole entry): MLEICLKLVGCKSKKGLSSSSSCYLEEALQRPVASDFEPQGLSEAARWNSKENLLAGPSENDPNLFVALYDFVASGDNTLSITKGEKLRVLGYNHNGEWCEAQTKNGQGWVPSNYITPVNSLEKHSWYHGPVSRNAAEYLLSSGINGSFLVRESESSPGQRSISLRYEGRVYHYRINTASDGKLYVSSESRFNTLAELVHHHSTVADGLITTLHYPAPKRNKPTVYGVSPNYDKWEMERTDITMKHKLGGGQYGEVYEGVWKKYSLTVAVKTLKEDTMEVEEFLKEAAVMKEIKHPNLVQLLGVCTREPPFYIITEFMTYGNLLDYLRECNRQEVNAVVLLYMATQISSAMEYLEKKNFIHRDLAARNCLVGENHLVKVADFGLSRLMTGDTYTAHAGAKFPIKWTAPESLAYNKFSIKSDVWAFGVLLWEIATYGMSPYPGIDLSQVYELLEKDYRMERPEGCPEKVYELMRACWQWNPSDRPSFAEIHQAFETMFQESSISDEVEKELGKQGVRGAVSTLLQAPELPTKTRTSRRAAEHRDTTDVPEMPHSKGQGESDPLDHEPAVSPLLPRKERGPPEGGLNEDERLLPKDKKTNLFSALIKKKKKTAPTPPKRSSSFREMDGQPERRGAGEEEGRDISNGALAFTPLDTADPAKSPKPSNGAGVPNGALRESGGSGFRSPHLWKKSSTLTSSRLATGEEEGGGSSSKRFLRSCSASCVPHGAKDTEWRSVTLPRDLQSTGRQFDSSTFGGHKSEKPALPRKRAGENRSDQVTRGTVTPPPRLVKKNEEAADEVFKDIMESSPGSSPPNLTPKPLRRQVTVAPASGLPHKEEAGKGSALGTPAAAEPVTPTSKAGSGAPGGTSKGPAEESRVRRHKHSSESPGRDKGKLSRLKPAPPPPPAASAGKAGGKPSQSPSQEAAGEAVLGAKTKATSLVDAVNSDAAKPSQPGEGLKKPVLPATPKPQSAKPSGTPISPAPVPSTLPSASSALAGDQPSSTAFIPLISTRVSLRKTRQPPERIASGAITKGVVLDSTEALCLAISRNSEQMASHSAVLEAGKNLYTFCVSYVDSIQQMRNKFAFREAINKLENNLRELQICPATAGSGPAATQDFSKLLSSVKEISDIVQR

Turning to `O=C(Nc1cnn(-c2csc(C(=O)NC3COC3)c2)c1)Nc1ccccc1Cl` [Compound 17, 4-(4-(3-(2-chlorophenyl)ureido)-1H-pyrazol-1-yl)-N-(oxetan-3-yl)thiophene-2-carboxamide], the remaining activity at 5 µM in experiment [1] was 83.4%; in experiment [2] it was 103%; in experiment [3], 107%; in experiment [4], 196%; in experiment [5] it was 140%.
As for `O=C(Nc1cnn(-c2csc(C(=O)NC3COC3)c2)c1)Nc1c(F)cccc1Cl` [Compound 25, 4-(4-(3-(2-chloro-6-fluorophenyl)ureido)-1H-pyrazol-1-yl)-N-(oxetan-3-yl)thiophene-2-carboxamide], the remaining activity at 5 µM in experiment [1] was 101%; in experiment [2], 87.2%; in experiment [3], 92.8%; in experiment [4], 105%; in experiment [5] it was 108%.
Take `Cc1sc(C(=O)NC2COC2)cc1-n1cc(NC(=O)Nc2c(F)cccc2Cl)cn1` [Compound 27, 4-(4-(3-(2-chloro-6-fluorophenyl)ureido)-1H-pyrazol-1-yl)-5-methyl-N-(oxetan-3-yl)thiophene-2-carboxamide]: the remaining activity at 10 µM came to 102% in experiment [1] (10 uM); 87.5% in experiment [2] (10 uM); 94.4% in experiment [3] (10 uM); 74.9% in experiment [4] (10 uM); 103% in experiment [5] (10 uM).
